Tests used:
MPI cells = assay: Cytokine response of MPI cells to microbial stimuli (ELISA, bioassay); type: cell-based, mouse
Procedure: Single cell suspensions (0.5x10^6 cells/ml) from fetal livers of 15 to 19 day-old mouse embryos or of livers of new-born mice (up to 2 weeks of age) were washed in PBS and resuspended in RPMI 1640 containing 10% fetal calf serum and supplemented with 20 ng/ml recombinant murine GM-CSF (also referred to herein as MPI medium). Rapidly proliferating cells were subcultured by splitting them 1:5 in MPI medium using cells detached with PBS/1.5 mM EDTA and floating cells in the culture. Cells proliferated more slowly after 2 weeks of culture. GM-CSF was replenished weekly and subcultures in MPI medium were made when total (attached and floating) cell density reached approximately 0.5 x 10^6 cell/ml. […]
(§1) Sarcin assay, measuring Ad endosomal escape was done as described previously (Schreiner et al., 2012). […] Non-endotoxin ligands were substantially LPS-free (less than or equal to 1 pg LPS/1011 viral particles) as determined by the Limulus amebocyte lysate test from Pyroquant. […]
Detection of secreted cytokines, surface antigens, intracellular proteins and enzymatic activity The following cytokines were detected with ELISA using commercially available antibody pairs or kits: mouse IL-6 (BD Bioscience), IL-1α (eBioscience), IL-1β (eBioscience) and IL-10 (eBioscience), human IL-6 (R&D Systems), IL-1α (eBioLegend) and IL-10 (BD Bioscience). […]

BMMs = assay: Cytokine response of BMMs to microbial stimuli (ELISA, bioassay); type: cell-based, mouse
Description: BMMs (Bone Marrow derived Macrophages) and GM-CSF induced BMDCs were generated as described (Fejer et al., 2008). The purity of BMMs was higher than 98%, of BMDCs approximately 80%. SP37A3 cells were originally grown in RPMI in the presence of GM-CSF and M-CSF as described (Bros et al., 2007). Cells growing in media with […] GM-CSF but without M-CSF were selected from the original cells and used further in the studies shown here.
as §1
Detection of secreted cytokines, surface antigens, intracellular proteins and enzymatic activity The following cytokines were detected with ELISA using commercially available antibody pairs or kits: mouse IL-6 (BD Bioscience), IL-1α (eBioscience), IL-1β (eBioscience) and IL-10 (eBioscience), human IL-6 (R&D Systems), IL-1α (eBioLegend) and IL-10 (BD Bioscience). IFN-αβ and TNF-α activities were measured with bioassays as described (Fejer et al., 2005). […] Intracellular proteins were detected on immunoblots with antibodies from Pharmingen BD (IL-1α and IL-1β) and Cell Signalling (phosphorylated isophorm of p38 MAPK). […]

## FSL-1
MPI cells; MPI cells
  IFN-αβ production: neither of the cell types produced IFN-αβ
MPI cells; MPI cells in comparison to BMMs
  IL-6 and TNF-α levels: higher levels
BMMs
  IFN-αβ production: neither of the cell types produced IFN-αβ

— patent EP2872621B1, “METHOD FOR THE GENERATION OF NON-TRANSFORMED MACROPHAGE CELL LINES” (Max-Planck-Gesellschaft zur Förderung der Wissenschaften …, priority 2012, dated 2014)
